From patent US4977276A, “Heteroarotinoids as anticancer agents” (The Board of Regents for the Oklahoma Agricultural and …, priority 1989, dated 1990)
Values after ≈ are worked out from the molar mass of the structure shown. “Also recorded” adds a separate entry of the source. Read-outs that look alike come from different tables or passages of the source.

Key:
[1] = system: ornithine decarboxylase (ODC); assay: suppression of TPA induced ornithine decarboxylase (ODC) activity in mouse skin; type: in vivo; settings: for % of Inhibition as Compared to Control: second table (60 min)
Protocol: In the ODC assay, either 13-cis-retinoic acid or trans-retinoic acid was employed. The following Table summarizes the result of the ODC assays.
Epidermus was separated, homogenized, and centrifuged at 30,000× g. Soluble epidermal ODC activity was assayed. The retinoids were evaluated in three independent experiments (3 groups of mice with 3 mice per group) and the results from the experiments were normalized (% inhibition) for comparison. […] Which standard is used appears to be relatively unimportant for determining activity in the assay, but the data presented in the Table identifies the standard for sake of clarity and accuracy of presentation. Thus, the presence of the heteroatom in these arotinoids has not eliminated biological activity. […] Consequently, the nature of the terminus group is also important.

HL-60 cells = assay: induction of differentiation of human HL-60 promyelocytic cells (NBT reduction); type: cell-based; settings: HL-60, 96 h, read-out: concentration of retinoid effective in achieving a half-maximal response (ED50)
Protocol: These mature cells, unlike the uninduced HL-60, produced superoxide anion when simulated with an appropriate agent, such as TPA. The ability of the individual cells to produce superoxide can be measured by incubating cells with the water-soluble yellow dye, nitroblue tetrazolium (NBT). NBT is reduced to a water-insoluble blue-black formazan by superoxide. This formazan precipitate is associated with those cells that produce superoxide. Thus, the percentage of cells in a population that produce superoxide (NBT-positive cells) can be enumerated under a light microscope.
After incubation for 4 days at 37° C. in a humidified atmosphere of 5% CO2 and air, the capacity of the cells to reduce NBT was determined. […] This cell suspension was mixed with an equal volume of phosphate buffered saline containing 1 mg of NBT/mL and […]. The reaction mixture was incubated at 37° C. for 25 minutes, and the reaction was terminated by cooling in an ice water bath. Cytospin slides were prepared from a portion of this reaction mixture and stained with Wright-Giemsa. A minimum of 200 cells were counted under light microscopy to determine the percentage of cells with cell-associated formazan.

[2] = system: HT-29 (colon adenocarcinoma); assay: Human Tumor Cell Line Bioassay (HTCL), HT-29; type: cell-based; settings: HT-29, MTT, O.D. 50% of control
Protocol: (§1) The Human Tumor Cell Line Bioassay (HTCL) has been conducted in a manner similar to the procedure described by Alley and co-workers (Cancer Research 1988, 48, 589-601). A panel of 4 tumor cell lines were grown in microliter plates and various concentrations of the test compounds were added to the wells. After 4 days, the number of viable cells were measured in terms of production of formazin after incubation with MTT [3-(4,5-dimethylthiazol-2-yl)-2,5-diphenyltetrazolium bromide]. Formazin production is directly proportional to the viable cell number/well and can be measured spectrophotometrically after solubilization.
The cell lines used in the HTCL assay were A-549 (lung adenocarcinoma), HT-29 (colon adenocarcinoma), MCF-7 (breast adenocarcinoma), and RPMI-7951 (melanoma). […] After detaching from the flask, the cells were resuspended in their appropriate medium, counted on a Coulter Counter (ZBI), and an aliquot was transferred to new T-25 flasks. […] The plates were read on a Dynatech 700 plate reader at 540 nm, and the data were collected on an IBM PC. The data were graphed and the ED50 was determined from the graph.

RPMI-7951 (melanoma) = assay: Human Tumor Cell Line Bioassay (HTCL), RPMI-7951; type: cell-based; design: key to ED50 Values: NDT: No detectable toxicity; settings: RPMI-7951, MTT, O.D. 50% of control; for IC50: Homo sapiens, read-out: ED50 Values
Protocol: as §1
The cell lines used in the HTCL assay were A-549 (lung adenocarcinoma), HT-29 (colon adenocarcinoma), MCF-7 (breast adenocarcinoma), and RPMI-7951 (melanoma). With the exception of HT-29, these cells have been adopted to grow in B10 medium which consists of Eagle's Minimum Essential Medium supplemented with 1.5× the essential amino acids, 2× the non-essential amino acids, 1.5× vitamins, 1× L-glutamine, 10% calf bovine serum (CBS), and 1× antibiotic solution (PSF) consisting of 50 U/mL of penicillin, 50 ug/mL of streptomycin sulfate, and 50 ug/mL of amphotericin B. HT-29 cells were grown in McCoy's 5A medium supplemented with 10% CBS and 1× PSF. Stock cultures of cells were routinely grown in 25 cm^2 flasks (T-25) and passaged on a weekly basis. Cells were passaged by washing twice with phosphate buffered saline (PBS) and once with a 0.005% trypsin--0.01% EDTA solution. Trypsin-EDTA solution was added and the flask was allowed to incubate for 2-5 minutes until the cells were detached. After detaching from the flask, the cells were resuspended in their appropriate medium, counted on a Coulter Counter (ZBI), and an aliquot was transferred to new T-25 flasks. The remaining cells were used to set up the assay in 96 well microliter plates. Either 3,000 (HT-29, MCF-7) or 2,000 (A-549, RPMI-7951) cells were added to the wells in a 96-well microliter plate in 0.2 mL of medium (Day 1). On Day 2, the compounds were resuspended at 1 or 2 mg/mL in acetone, and the compounds were serially diluted 10 or 5 fold in PBS and 20 uL of each dilution starting at 100 or 200 ug/mL was added to 4 wells of the microliter plate. Doxyrubicin was used as a positive control compound. On Day 7, 20 uL of MTT (2 mg/mL) was added to each of the wells. The plates were then incubated at 37° C. for 4 hours. After incubation, the medium and MTT were removed by aspiration and 100 uL of DMSO was added to solubilize the formazin product. The plates were read on a Dynatech 700 plate reader at 540 nm, and the data were collected on an IBM PC. The data were graphed and the ED50 was determined from the graph.

[3] = retinoid dose 17 nmol + TPA, first table, acetone + TPA control 0.90
[4] = in comparison with 13-cis-retinoic acid as the standard, or among the tested compounds
[5] = incubation 4 days at 37° C., NBT-positive cells
[6] = retinoid dose 34 nmol + TPA, second table, acetone + TPA control 1.67
[7] = with trans-retinoic acid as the standard

SMILES: CC1=C(/C=C/C(C)=C/C=C/C(C)=C\C(=O)O)C(C)(C)CCC1 [13-cis-retinoic acid, reference compound]
- ODC Activity [1, 3]: 0.1 ± 0.01 nmol CO2 /30 min/mg protein
- % of Inhibition as Compared to Control ([1]; retinoid dose 17 nmol + TPA): 92%
- ODC Activity ([1]; retinoid dose 17 nmol + TPA, second table, acetone + TPA control 1.67): 0.14 ± 0.04 nmol CO2 /60 min/mg protein

SMILES: CC(/C=C/C=C(\C)c1ccc2c(c1)C(C)(C)CCS2)=C\C(=O)O [(38), 7-[4.4-Dimethylthiochroman-6-yl]-3,7-dimethyl-2,4,6-heptatrienoic acid]
- activity in the ODC assay in words [1, 4]: essentially equivalent in activity to the standard
- ODC Activity [1, 3]: 0.1 ± 0.01 nmol CO2 /30 min/mg protein
- EC50 (HL-60 cells; [5]): 72 nM

SMILES: CCOC(=O)/C=C(C)/C=C/C=C(\C)c1ccc2c(c1)C(C)(C)CCS2 [(39), Ethyl 7-[4,4-Dimethylthiochroman-6-yl]-3,7-dimethyl-2,4,6-heptatrienoate]
- activity in the ODC assay in words [1, 4]: strongest activity; also recorded: more active
- ODC Activity [1, 3]: 0.0 ± 0.0 nmol CO2 /30 min/mg protein

SMILES: CC(/C=C/C=C(\C)c1ccc2c(c1)C(C)(C)CCS2)=C\C(=O)OCCN1C(=O)c2ccccc2C1=O [(40), (2-Phthalimide-ethyl) 7-[4,4-Dimethylthiochroman-6-yl]-3-7-dimethyl-2,4,6-heptatrienoate]
- % of Inhibition as Compared to Control ([1]; retinoid dose 34 nmol + TPA): 42%
- ODC Activity [1, 6]: 0.97 ± 0.13 nmol CO2 /60 min/mg protein
- activity in the ODC assay in words [1, 7]: less active compared to the same control

SMILES: CC(/C=C/C=C(\C)c1ccc2c(c1)C(C)(C)CCO2)=C\C(=O)O [(47), 7-[4,4-Dimethylchroman-6-yl]-3,7-dimethyl-2,4,6-heptatrienoic acid]
- % of Inhibition as Compared to Control ([1]; retinoid dose 34 nmol + TPA): 74%
- ODC Activity [1, 6]: 1.4 ± 0.2 nmol CO2 /60 min/mg protein
- activity in the ODC assay in words [1, 7]: slightly less active than the standard
- EC50 (HL-60 cells; [5]): 200 nM

SMILES: COc1cccc2c1C(=O)c1c(O)c3c(c(O)c1C2=O)C[C@@](O)(C(=O)CO)C[C@@H]3O[C@H]1C[C@H](N)[C@H](O)[C@H](C)O1 [Doxyrubicin]
- ED50 Values ([2]; 5760 min): 0.6 µg/mL (≈ 1.1 µM)
- IC50 ([2]; Homo sapiens, HT-29, 96 h, read-out: ED50 Values): 0.3 µg/mL (≈ 0.552 µM)
- IC50 (RPMI-7951 (melanoma); RPMI-7951, 96 h): 0.2 µg/mL (≈ 0.368 µM)
- ED50 Values (RPMI-7951 (melanoma); 5760 min): 0.1 µg/mL (≈ 0.184 µM)

SMILES: CC1=C(/C=C/C(C)=C/C=C/C(C)=C/C(=O)O)C(C)(C)CCC1 [trans-retinoic acid]
- EC50 (HL-60 cells): 41 nM
- IC50 (RPMI-7951 (melanoma); 96 h): 30 µg/mL (≈ 99.9 µM)
- ED50 Values (RPMI-7951 (melanoma)): NDT
